Some results are limits rather than exact numbers.

One test relates to 786-O-Hif-Luc cells (luciferase gene driven by multiple HIF responsive elements). The test can be described thus: Luciferase Assay. Conditions: 24 h, 786-O-Hif-Luc cells, about 24 hours; read-out: Mean Luciferease EC50. The test is classed as cell-based. How it is done: A pool of infected cells were then selected against 2 μg/mL of puromycin (P8833, Sigma) for 10 days followed by limited dilution to select single clones.
Each concentration was tested in triplicate. After about 24 hours, luciferase activity was determined using ONE-Glo Luciferase Assay Reagent (E6110, Promega) following the manufacturer's recommended procedure. EC50 were calculated by using Dotmatics software.
With `N#Cc1cc(F)cc(Oc2ccc(S(=O)(=O)C(F)(F)F)c3c2[C@@H](N)C[C@H]3O)c1` (relative stereo) [Compound 279, 3-((cis-3-amino-1-hydroxy-7-((trifluoromethyl)sulfonyl)-2,3-dihydro-1H-inden-4-yl)oxy)-5-fluorobenzonitrile], the EC50 (as a rule, the concentration at which the effect is half-maximal) stood at 5900 nM.

`N#CN=S(=O)(CF)c1ccc(Oc2cc(F)cc(C#N)c2)c2c1[C@H](O)C(F)(F)C2` (single isomer, unassigned) [Compound 285]: the EC50 came out at 100 nM.

`O=S(=O)(c1ccc(Oc2cncc(Cl)c2)c2c1[C@H](O)CC2)C(F)F` [Compound 3, (R)-4-((5-chloropyridin-3-yl)oxy)-7-((difluoromethyl)sulfonyl)-2,3-dihydro-1H-inden-1-ol]: the EC50 was 960 nM.

`O=S(=O)(c1ccc(Oc2cncc(F)c2)c2c1[C@H](O)CC2)C(F)F` [Compound 5, (R)-7-((difluoromethyl)sulfonyl)-4-((5-fluoropyridin-3-yl)oxy)-2,3-dihydro-1H-inden-1-ol]: the EC50 is 420 nM.

On to `COc1cc(F)cc(Oc2ccc(S(=O)(=O)C(F)F)c3c2CC[C@H]3O)c1` [Compound 6, (R)-7-((difluoromethyl)sulfonyl)-4-(3-fluoro-5-methoxyphenoxy)-2,3-dihydro-1H-inden-1-ol], for which the EC50 came to 75 nM.

For the compound `N#Cc1cc(F)cc(Oc2ccc(S(=O)(=O)C(F)F)c3c2CC(F)(F)C3O)c1` (centres unmarked) [Compound 11, 3-[7-(difluoromethylsulfonyl)-2,2-difluoro-1-hydroxy-indan-4-yl]oxy-5-fluoro-benzonitrile], the EC50 came to 16 nM.

With `O=C1CCc2c(Oc3cc(F)cc(Cl)c3)ccc(S(=O)(=O)C(F)F)c21` [Compound 18, 4-(3-chloro-5-fluorophenoxy)-7-((difluoromethyl)sulfonyl)-2,3-dihydro-1H-inden-1-one], the EC50 came out at 2670 nM.

For `O=S(=O)(c1ccc(Oc2cc(F)cc(F)c2)c2c1CCC2)C(F)F` [Compound 20, 4-((Difluoromethyl)sulfonyl)-7-(3,5-difluorophenoxy)-2,3-dihydro-1H-indene], the EC50 came out at 1910 nM.

Turning to `O=S(=O)(c1ccc(Oc2cc(F)cc(F)c2)c2c1C=CC2)C(F)F` [Compound 21, 4-((Difluoromethyl)sulfonyl)-7-(3,5-difluorophenoxy)-1H-indene], the EC50 came to 1540 nM.

Consider `O=S(=O)(c1ccc(Oc2cc(F)cc(F)c2)c2c1CC(O)C2)C(F)F` (centres unmarked) [Compound 22, 4-((Difluoromethyl)sulfonyl)-7-(3,5-difluorophenoxy)-2,3-dihydro-1H-inden-2-ol], for which the EC50 was 1290 nM.

Take `O=S(=O)(c1ccc(Oc2cncc(Cl)c2)c2c1[C@H](O)C(F)(F)C2)C(F)F` [Compound 25, (S)-4-((5-chloropyridin-3-yl)oxy)-7-((difluoromethyl)sulfonyl)-2,2-difluoro-2,3-dihydro-1H-inden-1-ol]: the EC50 was determined as 18 nM.

For the compound `O=S(=O)(c1ccc(Oc2ccc(F)c(Cl)c2)c2c1[C@H](O)C(F)(F)C2)C(F)F` [Compound 26, (S)-4-(3-Chloro-4-fluorophenoxy)-7-((difluoromethyl)sulfonyl)-2,2-difluoro-2,3-dihydro-1H-inden-1-ol], the EC50 stood at 68 nM.

With `N#Cc1cncc(Oc2ccc(S(=O)(=O)C(F)F)c3c2CC(F)(F)[C@H]3O)c1` [Compound 27, (S)-5-((7-((Difluoromethyl)sulfonyl)-2,2-difluoro-1-hydroxy-2,3-dihydro-1H-inden-4-yl)oxy)nicotinonitrile], the EC50 turned out to be 160 nM.

With `Cc1c(S(=O)(=O)C(F)F)ccc(Oc2cc(F)cc(Cl)c2)c1C#N` [Compound 32, 6-(3-Chloro-5-fluorophenoxy)-3-((difluoromethyl)sulfonyl)-2-methylbenzonitrile], the EC50 turned out to be 1900 nM.

Turning to `Cc1c(S(=O)(=O)C(F)F)ccc(Oc2cc(F)cc(C#N)c2)c1C#N` [Compound 33, 6-(3-Cyano-5-fluorophenoxy)-3-((difluoromethyl)sulfonyl)-2-methylbenzonitrile], the EC50 was 2900 nM.

As for `N#Cc1c(Oc2cc(F)cc(Cl)c2)ccc(S(=O)(=O)C(F)F)c1CO` [Compound 35, 6-(3-Chloro-5-fluorophenoxy)-3-((difluoromethyl)sulfonyl)-2-(hydroxymethyl)benzonitrile], the EC50 was above 20000 nM.

`N#Cc1c(S(=O)(=O)C(F)F)ccc(Oc2cc(F)cc(Cl)c2)c1Cl` [Compound 38, 2-Chloro-3-(3-chloro-5-fluorophenoxy)-6-((difluoromethyl)sulfonyl)benzonitrile]: the EC50 is 390 nM.

For `N#Cc1cc(F)cc(Oc2ccc(S(=O)(=O)C(F)F)c(C#N)c2Cl)c1` [Compound 39, 2-Chloro-3-(3-cyano-5-fluorophenoxy)-6-((difluoromethyl)sulfonyl)benzonitrile], the EC50 came to 600 nM.

Consider `N#Cc1cccc(Oc2ccc(S(=O)(=O)C(F)F)c(C#N)c2Cl)c1` [Compound 40, 2-Chloro-3-(3-cyanophenoxy)-6-((difluoromethyl)sulfonyl)benzonitrile], for which the EC50 was found to be 1200 nM.

`N#Cc1cc(F)cc(Oc2ccc(S(=O)(=O)C(F)F)c(CO)c2Cl)c1` [Compound 42, 3-(2-Chloro-4-((difluoromethyl)sulfonyl)-3-(hydroxymethyl)phenoxy)-5-fluorobenzonitrile]: the EC50 was determined as 450 nM.

Regarding `N#Cc1cccc(Oc2ccc(S(=O)(=O)C(F)F)c(CO)c2Cl)c1` [Compound 43, 3-(2-Chloro-4-((difluoromethyl)sulfonyl)-3-(hydroxymethyl)phenoxy)benzonitrile], the EC50 worked out at 790 nM.

With `O=S(=O)(c1ccc(Oc2cc(F)cc(Cl)c2)c(Cl)c1CCl)C(F)F` [Compound 46, 2-Chloro-1-(3-chloro-5-fluorophenoxy)-3-(chloromethyl)-4-((difluoromethyl)sulfonyl)benzene], the EC50 stood at 8100 nM.

For `Cc1c(S(C)(=O)=O)ccc(Oc2cc(F)cc(Cl)c2)c1C#N` [Compound 50, 6-(3-Chloro-5-fluorophenoxy)-2-methyl-3-(methylsulfonyl)benzonitrile], the EC50 came out at 1600 nM.

In the case of `Cc1c(S(C)(=O)=O)ccc(Oc2cc(F)cc(F)c2)c1C#N` [Compound 52, 6-(3,5-Difluorophenoxy)-2-methyl-3-(methylsulfonyl)benzonitrile], the EC50 is 1000 nM.

Regarding `Cc1c(S(C)(=O)=O)ccc(Oc2cc(F)cc(Cl)c2)c1C(F)F` [Compound 53, 1-(3-Chloro-5-fluorophenoxy)-2-(difluoromethyl)-3-methyl-4-(methylsulfonyl)benzene], the EC50 was 3300 nM.

Turning to `CS(=O)(=O)c1ccc(Oc2cc(F)cc(Cl)c2)c(C(F)F)c1CO` [Compound 54, (3-(3-Chloro-5-fluorophenoxy)-2-(difluoromethyl)-6-(methylsulfonyl)phenyl)methanol], the EC50 is 350 nM.

On to `O=S(=O)(c1ccc(Oc2cc(F)cc(Cl)c2)c2c1[C@H](O)CC2)C(F)(F)F` [Compound 56, (R)-4-(3-Chloro-5-fluorophenoxy)-7-((trifluoromethyl)sulfonyl)-2,3-dihydro-1H-inden-1-ol], for which the EC50 amounted to 68 nM.

In the case of `O[C@@H]1CCc2c(Oc3cc(F)cc(F)c3)ccc(C(F)(F)F)c21` [Compound 58, (R)-4-(3,5-Difluorophenoxy)-7-(trifluoromethyl)-2,3-dihydro-1H-inden-1-ol], the EC50 came out at 160 nM.

In the case of `O=S(=O)(CF)c1ccc(Oc2cc(F)cc(F)c2)c2c1C(O)CC2` [Compound 59, (R)-4-(3,5-Difluorophenoxy)-7-((fluoromethyl)sulfonyl)-2,3-dihydro-1H-inden-1-ol], the EC50 was found to be 90 nM.

Take `O=S(=O)(CF)c1ccc(Oc2cc(F)cc(Cl)c2)c2c1[C@H](O)CC2` [Compound 61, (R)-4-(3-Chloro-5-fluorophenoxy)-7-((fluoromethyl)sulfonyl)-2,3-dihydro-1H-inden-1-ol]: the EC50 stood at 110 nM.

For the compound `N#Cc1cc(F)cc(Oc2ccc(S(=O)(=O)CF)c3c2CC[C@H]3O)c1` [Compound 62, (R)-3-Fluoro-5-((7-((fluoromethyl)sulfonyl)-1-hydroxy-2,3-dihydro-1H-inden-4-yl)oxy)benzonitrile], the EC50 worked out at 180 nM.

For `O=S(=O)(CF)c1ccc(Oc2cc(F)cc(Cl)c2)c2c1[C@H](O)C(F)(F)C2` [Compound 65, (S)-4-(3-Chloro-5-fluorophenoxy)-2,2-difluoro-7-((fluoromethyl)sulfonyl)-2,3-dihydro-1H-inden-1-ol], the EC50 was 6 nM.

In the case of `N=S(=O)(c1ccc(Oc2cc(F)cc(Cl)c2)c(Br)c1Cl)C(F)(F)F` (centres unmarked) [Compound 75, (3-bromo-2-chloro-4-(3-chloro-5-fluorophenoxy)phenyl)(imino)(trifluoromethyl)-λ^6-sulfanone], the EC50 was 8800 nM.

In the case of `N#Cc1cccc(Oc2ccc(S(=O)(=O)C(F)F)c(CO)c2Br)c1` [Compound 81, 3-(2-Bromo-4-((difluoromethyl)sulfonyl)-3-(hydroxymethyl)phenoxy)benzonitrile], the EC50 stood at 850 nM.

As for `NCc1c(S(=O)(=O)C(F)F)ccc(Oc2cc(F)cc(Cl)c2)c1Br` [Compound 85, (2-Bromo-3-(3-chloro-5-fluorophenoxy)-6-((difluoromethyl)sulfonyl)phenyl)methanamine], the EC50 came out at 11800 nM.

For `CS(=O)(=O)c1ccc(Oc2cc(F)cc(Cl)c2)c2c1C(O)CC2` (centres unmarked) [Compound 90, 4-(3-Chloro-5-fluorophenoxy)-7-(methylsulfonyl)-2,3-dihydro-1H-inden-1-ol], the EC50 is 850 nM.

For the compound `CCS(=O)(=O)c1ccc(Oc2cc(F)cc(Cl)c2)c2c1C(O)CC2` (centres unmarked) [Compound 91, 4-(3-Chloro-5-fluorophenoxy)-7-(ethylsulfonyl)-2,3-dihydro-1H-inden-1-ol], the EC50 turned out to be 2300 nM.

The test is the same for the next values; noted with them: 24 h, read-out: Mean Luciferease EC50.
Take `N#Cc1cc(F)cc(Oc2ccc(S(=O)(=O)C(F)(F)F)c3c2CC[C@H]3O)c1` [Compound 57, (R)-3-Fluoro-5-((1-hydroxy-7-((trifluoromethyl)sulfonyl)-2,3-dihydro-1H-inden-4-yl)oxy)benzonitrile]: the EC50 came to 110 nM.
